Calls of active or inactive are those of the source.
Key:
[1] = target: T1, Oxysterols receptor LXR-beta (Homo sapiens, UniProt P55055); type: functional, cell-based;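 also: agonist activity at LXR measured by a cell-based luminescence readout across a dose range, run as a counterscreen for daf-12 agonists; HEK293 cells with Gal4-LXR fusion and GAL4-driven luciferase reporter; potency for activation of Gal4-LXR reporter so compounds are agonists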
T1 sequence (P55055 whole entry): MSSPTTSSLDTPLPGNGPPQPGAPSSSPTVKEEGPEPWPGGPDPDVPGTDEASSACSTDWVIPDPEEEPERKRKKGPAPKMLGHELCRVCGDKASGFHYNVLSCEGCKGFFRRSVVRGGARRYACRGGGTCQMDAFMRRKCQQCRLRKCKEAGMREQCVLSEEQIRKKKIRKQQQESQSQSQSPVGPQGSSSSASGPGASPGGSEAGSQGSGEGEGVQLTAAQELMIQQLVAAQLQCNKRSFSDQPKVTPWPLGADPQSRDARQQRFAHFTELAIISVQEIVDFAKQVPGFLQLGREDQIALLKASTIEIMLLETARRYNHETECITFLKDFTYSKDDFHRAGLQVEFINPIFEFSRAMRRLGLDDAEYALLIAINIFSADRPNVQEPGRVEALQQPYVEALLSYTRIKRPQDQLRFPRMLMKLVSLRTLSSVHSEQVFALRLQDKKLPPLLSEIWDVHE

[2] = target: Nuclear receptor subfamily 5 group A member 2 (Homo sapiens, UniProt O00482); type: functional, cell-based;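 also: HEK293T cells transfected with LRH-1 and a StAR promoter luciferase reporter; potency for inhibitors that lower LRH-1 driven reporter light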
Nuclear receptor subfamily 5 group A member 2, sequence (O00482 whole entry): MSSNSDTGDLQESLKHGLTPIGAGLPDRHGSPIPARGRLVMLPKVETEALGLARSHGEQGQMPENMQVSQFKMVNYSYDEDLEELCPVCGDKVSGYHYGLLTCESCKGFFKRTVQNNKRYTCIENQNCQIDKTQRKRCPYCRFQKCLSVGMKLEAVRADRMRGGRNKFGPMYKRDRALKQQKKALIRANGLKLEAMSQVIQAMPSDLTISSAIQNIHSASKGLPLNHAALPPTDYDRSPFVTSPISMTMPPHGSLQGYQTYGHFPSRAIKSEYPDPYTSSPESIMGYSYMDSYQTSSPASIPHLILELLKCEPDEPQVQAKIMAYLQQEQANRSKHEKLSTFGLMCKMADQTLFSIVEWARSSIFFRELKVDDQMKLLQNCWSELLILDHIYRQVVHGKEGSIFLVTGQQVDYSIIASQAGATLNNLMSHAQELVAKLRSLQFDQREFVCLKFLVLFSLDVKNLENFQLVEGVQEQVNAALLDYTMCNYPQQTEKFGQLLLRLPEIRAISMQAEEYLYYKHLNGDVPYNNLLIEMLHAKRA

[3] = nonselective StAR promoter luciferase inhibitors – cell-based, luminescence, luciferase reporter, counter-screen for LRH-1 inverse agonist project, dose response (AID 651969); type: functional
Steroidogenic factor 1 = Steroidogenic factor 1 (Homo sapiens, UniProt Q13285); assay: Counterscreen for inverse agonists of the liver receptor homolog-1 (LRH-1; NR5A2): Luminescence-based cell-based high throughput dose response assay to identify inverse agonists of the Steroidogenic Factor 1 Nuclear Receptor (SF1; NR5A1).; type: functional
Steroidogenic factor 1, sequence (Q13285 whole entry): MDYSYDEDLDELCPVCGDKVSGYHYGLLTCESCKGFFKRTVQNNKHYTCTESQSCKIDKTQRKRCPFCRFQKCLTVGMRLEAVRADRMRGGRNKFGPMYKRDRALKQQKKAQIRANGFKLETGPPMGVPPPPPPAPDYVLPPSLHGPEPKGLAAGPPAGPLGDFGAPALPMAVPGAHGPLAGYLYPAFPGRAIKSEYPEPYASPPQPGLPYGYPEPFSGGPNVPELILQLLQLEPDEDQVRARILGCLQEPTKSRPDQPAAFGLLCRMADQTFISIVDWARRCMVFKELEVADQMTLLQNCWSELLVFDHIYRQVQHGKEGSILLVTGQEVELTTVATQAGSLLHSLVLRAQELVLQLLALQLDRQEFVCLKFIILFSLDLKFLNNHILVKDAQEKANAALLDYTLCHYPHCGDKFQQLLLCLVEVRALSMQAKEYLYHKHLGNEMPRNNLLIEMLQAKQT

[4] = potency of ADAM10 substrate cleavage blockers – biochemical, QFRET, dose response (AID 743254);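 also: ADAM10 enzyme with the DM2 quenched FRET peptide as substrate; EDANS fluorescence gain as the protease cuts the substrate; inhibitor potency against ADAM10 proteolytic activity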
[5] = target: T2, Disintegrin and metalloproteinase domain-containing protein 17 (Homo sapiens, UniProt P78536); assay: exosite inhibitors of ADAM17, dose response, biochemical (AID 743260)
T2 sequence (P78536 whole entry, the tested form may be a part): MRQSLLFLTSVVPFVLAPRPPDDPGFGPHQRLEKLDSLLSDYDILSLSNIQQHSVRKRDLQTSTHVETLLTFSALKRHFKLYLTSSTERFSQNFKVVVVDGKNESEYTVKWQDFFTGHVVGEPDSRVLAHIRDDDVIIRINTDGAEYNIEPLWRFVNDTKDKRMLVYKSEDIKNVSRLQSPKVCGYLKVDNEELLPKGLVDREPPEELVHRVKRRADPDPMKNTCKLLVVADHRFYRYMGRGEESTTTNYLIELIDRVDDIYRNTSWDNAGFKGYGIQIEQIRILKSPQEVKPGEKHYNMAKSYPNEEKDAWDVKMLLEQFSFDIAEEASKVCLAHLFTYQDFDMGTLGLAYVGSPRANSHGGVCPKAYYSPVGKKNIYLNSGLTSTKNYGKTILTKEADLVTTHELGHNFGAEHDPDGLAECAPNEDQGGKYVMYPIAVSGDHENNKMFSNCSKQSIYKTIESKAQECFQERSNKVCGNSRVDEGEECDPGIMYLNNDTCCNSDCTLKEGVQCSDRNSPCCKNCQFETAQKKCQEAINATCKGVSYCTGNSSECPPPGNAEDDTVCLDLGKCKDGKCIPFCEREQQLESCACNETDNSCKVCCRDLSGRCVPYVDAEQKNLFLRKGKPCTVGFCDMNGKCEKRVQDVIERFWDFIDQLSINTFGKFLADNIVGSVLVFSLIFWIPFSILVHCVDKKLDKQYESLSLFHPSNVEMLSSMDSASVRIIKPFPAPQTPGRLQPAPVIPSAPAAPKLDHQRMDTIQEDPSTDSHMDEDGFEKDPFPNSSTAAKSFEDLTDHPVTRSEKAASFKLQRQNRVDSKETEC

[6] = target: T2, Disintegrin and metalloproteinase domain-containing protein 17; assay: inhibition of ADAM17 substrate cleavage – biochemical, quenched FRET substrate, counter-screen for ADAM10 exosite inhibitor project, dose response (AID 743253)
[7] = target: T3, Corticotropin-releasing factor receptor 2/Corticotropin-releasing factor-binding protein (Homo sapiens, UniProt P24387+Q13324); assay: Dose Response confirmation of uHTS hits for small molecule antagonists of the CRF-binding protein and CRF-R2 receptor complex.; type: functional; details: read-out: IC50_Mean
T3 sequence (Q13324 whole entry): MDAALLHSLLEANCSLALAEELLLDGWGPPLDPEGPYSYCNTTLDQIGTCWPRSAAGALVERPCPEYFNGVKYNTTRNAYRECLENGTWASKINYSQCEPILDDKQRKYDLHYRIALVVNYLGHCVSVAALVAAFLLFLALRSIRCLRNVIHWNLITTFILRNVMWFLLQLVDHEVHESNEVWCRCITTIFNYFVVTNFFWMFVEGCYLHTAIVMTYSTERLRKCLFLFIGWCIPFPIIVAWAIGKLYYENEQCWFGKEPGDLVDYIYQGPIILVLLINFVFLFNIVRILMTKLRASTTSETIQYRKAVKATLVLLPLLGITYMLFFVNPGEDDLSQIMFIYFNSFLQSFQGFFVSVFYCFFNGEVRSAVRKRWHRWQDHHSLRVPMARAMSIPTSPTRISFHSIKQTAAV
T3 sequence (P24387 whole entry): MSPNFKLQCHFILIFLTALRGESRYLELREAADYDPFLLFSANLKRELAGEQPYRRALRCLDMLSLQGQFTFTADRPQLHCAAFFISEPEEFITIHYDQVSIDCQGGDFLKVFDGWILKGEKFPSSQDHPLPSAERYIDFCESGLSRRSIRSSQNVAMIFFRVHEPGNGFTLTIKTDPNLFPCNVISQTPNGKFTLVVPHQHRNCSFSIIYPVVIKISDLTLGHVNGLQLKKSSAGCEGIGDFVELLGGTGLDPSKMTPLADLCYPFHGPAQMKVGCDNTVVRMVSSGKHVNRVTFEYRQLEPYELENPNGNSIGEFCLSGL

[8] = target: T3, Corticotropin-releasing factor receptor 2/Corticotropin-releasing factor-binding protein; assay: activators of CRF receptor 2 with binding protein – uHTS hits, confirmation (AID 602473); type: functional; details: read-out: EC50_Mean
[9] = blockers of CRF-binding protein–CRF-R2 complex – cell-based, uHTS hits, 384-well, dose response (AID 651639); type: functional, Homo sapiens; details: read-out: IC50_Mean
[10] = alpha-synuclein stem-loop luciferase translation blockers – H4 neuroglioma cells, luminescence, confirmation (AID 1988); type: functional, cell-based
[11] = luciferase reporter signal suppression in cells – H4 neuroglioma cells, luminescence, dose response (AID 1990); type: functional, cell-based
Streptokinase A = target: T4, Streptokinase A (Streptococcus pyogenes serotype M1, UniProt P10520); assay: viability-normalized secreted streptokinase activity reduction – plasminogen activation absorbance, OD405, dose response (AID 1914); type: functional, Streptococcus pyogenes M1 GAS;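 also: secreted streptokinase activity via plasminogen activation per viability signal from cell pellet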
T4 sequence (P10520 whole entry): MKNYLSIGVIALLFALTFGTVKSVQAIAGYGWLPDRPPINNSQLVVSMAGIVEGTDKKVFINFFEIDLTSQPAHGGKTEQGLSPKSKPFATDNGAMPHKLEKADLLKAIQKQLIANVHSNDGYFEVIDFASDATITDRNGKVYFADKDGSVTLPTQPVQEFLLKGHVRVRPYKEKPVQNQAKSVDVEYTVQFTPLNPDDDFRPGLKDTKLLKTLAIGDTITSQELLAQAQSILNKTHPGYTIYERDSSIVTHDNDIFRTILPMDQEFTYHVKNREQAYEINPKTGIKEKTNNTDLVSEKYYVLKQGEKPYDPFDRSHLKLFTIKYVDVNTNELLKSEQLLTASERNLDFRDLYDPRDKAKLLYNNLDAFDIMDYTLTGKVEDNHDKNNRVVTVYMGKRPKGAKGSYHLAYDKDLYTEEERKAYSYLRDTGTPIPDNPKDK

[12] = Luminescence Cell-Based Dose Response HTS to Identify Inhibitors of 5'UTR Stem-Loop Driven Prion Protein mRNA Translation in H4 Neuroglioblastoma Cells. [Related pubchem assays: 1827 (Project Summary), 1813 (Primary HTS)]; type: functional
Streptococcus = assay: GAS UMAA2166 growth inhibition – luminescence, BacTiterGlo, counter-screen for streptokinase expression inhibitor project, dose response (AID 1915); type: functional, organism-based;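 also: potency for reduction of bacterial viability or growth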
[13] = test system: Streptococcus sp. 'group A'; assay: Streptococcus pyogenes SK(-)GAS viability under kanamycin – luminescence, BacTiterGlo, confirmation, counter-screen for streptokinase expression inhibitor project, dose response (AID 1900); type: functional, organism-based
[14] = target: T5, Nuclear receptor subfamily 0 group B member 1 (Homo sapiens, UniProt P51843); type: functional, cell-based;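 also: HEK293T cells transfected with SF-1 and DAX-1 plus StAR promoter luciferase reporter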
T5 sequence (P51843 whole entry): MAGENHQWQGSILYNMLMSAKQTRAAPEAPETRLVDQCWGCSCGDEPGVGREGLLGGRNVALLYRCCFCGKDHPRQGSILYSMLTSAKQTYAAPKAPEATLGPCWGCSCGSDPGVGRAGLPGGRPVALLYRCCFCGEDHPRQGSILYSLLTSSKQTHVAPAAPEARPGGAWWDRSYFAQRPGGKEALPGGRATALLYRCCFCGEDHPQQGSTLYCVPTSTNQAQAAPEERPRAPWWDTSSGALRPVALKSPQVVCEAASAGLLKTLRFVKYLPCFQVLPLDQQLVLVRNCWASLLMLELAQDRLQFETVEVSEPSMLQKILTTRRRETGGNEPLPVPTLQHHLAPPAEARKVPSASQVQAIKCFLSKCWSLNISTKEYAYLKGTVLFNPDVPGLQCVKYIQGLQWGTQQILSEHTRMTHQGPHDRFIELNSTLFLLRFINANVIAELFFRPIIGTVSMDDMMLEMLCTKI

cells [15] = type: functional, cell-based
Caspase-6 = target: T6, Caspase-6 (Homo sapiens, UniProt P55212); assay: inhibition of CASP6 peptide cleavage – biochemical, VEID-R110 fluorescence, cherry-pick, dose response (AID 720632)
T6 sequence (P55212 whole entry): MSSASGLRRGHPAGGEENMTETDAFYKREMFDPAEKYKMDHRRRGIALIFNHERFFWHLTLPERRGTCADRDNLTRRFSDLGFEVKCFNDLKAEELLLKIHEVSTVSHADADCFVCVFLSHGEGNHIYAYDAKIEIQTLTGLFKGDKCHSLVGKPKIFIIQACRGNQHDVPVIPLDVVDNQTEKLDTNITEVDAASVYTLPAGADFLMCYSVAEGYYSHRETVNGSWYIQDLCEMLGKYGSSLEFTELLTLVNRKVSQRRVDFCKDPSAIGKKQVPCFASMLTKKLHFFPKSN

cells [16] = type: functional, cell-based; remark: listed apart in the source
cells [17] = type: functional, cell-based; remark: listed apart in the source
[18] = inhibition of ADAM10 peptide cleavage – biochemical, FRET peptide substrate, recombinant human ADAM10, selectivity assay for ADAM17 exosite inhibitor project, dose response (AID 743259);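 also: ADAM10 enzyme cleaving a FRET peptide substrate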

Compound: c1csc(-c2nnc(-c3ccc(N4CCOCC4)cc3)o2)c1
- EC50 [1]: > 67.5 µM (inactive)

Compound: CCOc1ccc(OCCC(=O)OCC(=O)Nc2ccc3c(c2)OCCO3)cc1
- IC50 [2]: 35.9 µM (inactive)
- IC50 [3]: 35.9 µM (inactive)
- IC50 (Steroidogenic factor 1): 12.7 µM (inactive)

Compound: CC(=O)c1cccc(NC(=O)C(OC(=O)c2ccccc2NS(=O)(=O)c2cccs2)c2ccccc2)c1 (stereo not drawn)
- IC50 [4]: > 69.5 µM (inactive)
- IC50 [5]: > 69.5 µM (inactive)
- IC50 [6]: > 69.5 µM (inactive)

Compound: Cc1ccc(NC(=O)c2cc3c(s2)CCCC3)cc1S(=O)(=O)Nc1ccccc1Cl
- IC50 [4]: > 69.5 µM (inactive)
- IC50 [6]: > 69.5 µM (inactive)

Compound: CCOc1ccc(Cl)cc1S(=O)(=O)n1nnc2ccccc21
- IC50 [7]: 3.56 µM (active)
- EC50 [8]: > 53 µM (inactive)
- IC50 [9]: 2.16 µM (active)

Compound: Cn1cc(C(=O)c2ccc(Cl)cc2Cl)cc1C(=O)NN=C(N)COc1ccc(Cl)cc1Cl
- EC50 [10]: 9.69 µM (active)
- EC50 [11]: > 120 µM (not active)
- EC50 (Streptokinase A): > 150 µM (not active)
- EC50 [12]: 24.3 µM (active)
- IC50 [4]: > 69.5 µM (inactive)
- EC50 (Streptococcus): 43.9 µM (active)
- EC50 [13]: 0.927 µM (active)
- IC50 [6]: > 69.5 µM (inactive)

Compound: Cc1cc(C(=O)CSc2nnc(N)s2)c(C)n1C1CC1
- IC50 [14]: > 67.6 µM (inactive)
- IC50 (cells [15]): > 67.6 µM (inactive)

Compound: NC(=O)c1c(NC(=O)C2CC=CCC2C(=O)O)sc2c1CCCCC2 (stereo not drawn)
- AC50 (Caspase-6): 5.79 µM (active)

Compound: CC1CCc2c(sc(NC(=O)C3=COCCO3)c2C(N)=O)C1 (stereo not drawn)
- EC50 [1]: > 67.5 µM (inactive)

Compound: COc1ccccc1NC(=O)CN1CCN(CC(=O)Nc2ccc3c(c2)OCCO3)CC1
- IC50 [2]: 4.02 µM (active)
- IC50 [3]: 35.9 µM (inactive)
- IC50 (Steroidogenic factor 1): 0.985 µM (active)

Compound: COc1ccc(C(=O)Nc2cc(=O)n(C)c(=O)n2C)cc1
- IC50 [7]: < 0.368 µM (active)
- EC50 [8]: > 53 µM (inactive)
- IC50 [9]: > 20 µM (inactive)

Compound: CC1CCC2(CC1)NC(=O)N(CC(=O)Nc1ccc3c(c1)OCCCO3)C2=O (stereo not drawn)
- IC50 [2]: 6.2 µM (active)
- IC50 [3]: 35.9 µM (inactive)
- IC50 (Steroidogenic factor 1): 1.02 µM (active)

Compound: Cc1ccsc1C(=O)OCC(=O)c1cc(C)n(C)c1C
- IC50 [14]: > 0.278 µM (active)
- IC50 (cells [15]): > 67.6 µM (inactive)

Compound: CCN(CC)C1Oc2cc3c(cc2C(c2cccc(OC)c2O)C1C)OCO3 (stereo not drawn)
- IC50 [7]: 2.99 µM (active)
- EC50 [8]: > 53 µM (inactive)
- IC50 [9]: 5.28 µM (active)

Compound: O=C(Cc1nnc(O)nc1O)N/N=C/c1ccccc1O
- IC50 (cells [16]): > 29.9 µM (inactive)
- EC50 (cells [17]): > 29.9 µM (inactive)

Compound: CNC(=O)C1CC(=O)N=C(N/N=C(\C)c2cccs2)S1 (stereo not drawn)
- IC50 [18]: > 23.2 µM (inactive)
- IC50 [5]: > 69.5 µM (inactive)

Compound: c1ccc(Nc2nc(-c3cccnc3)cs2)nc1
- EC50 [1]: > 67.6 µM (inactive)

Source: ChEMBL document CHEMBL1201862, “PubChem BioAssay data set” (2004)
